The values below come from patent US20140243281A1, “BILE ACID RECYCLING INHIBITORS FOR TREATMENT OF PEDIATRIC CHOLESTATIC LIVER DISEASES” (Lumena Pharmaceuticals, Inc., priority 2011, published 2014).

Molecules are shown by their SMILES. Read-outs that look alike come from different tables or passages of the source. Marks after values point to notes of the source that are not given here.

Data set [1] has as its system Male Zucker diabetic fatty rats (ZDF/GmiCrl-fa/fa). Put plainly: Fecal bile acid excretion and plasma bile acid concentrations in ZDF rats given 264W94. The note with it: 2 weeks. Format: in vivo, rat. As to the method: Male Zucker diabetic fatty rats (ZDF/GmiCrl-fa/fa) were purchased from Charles River (Raleigh, N.C.) and housed under controlled conditions (12:12 light-dark cycle, 24° C. and 50% relative humidity) with free access to rodent food (Purina 5008, Harlan Teklad, Indianapolis, Ind.). All rats arrived at seven weeks of age (±3 days). After a one-week acclimation period, rats were anesthetized with isoflurane (Abbott Laboratories, IL) and tail-vein blood samples were collected at 9 am without fasting. Blood glucose levels were measured using a glucometer (Bayer, Leverkusen, Germany). In order to ensure balanced treatment groups, ZDF rats were assigned to six treatment groups based upon baseline glucose: vehicle (0.5% HPMC, 0.1% Tween80) and five doses of 264W94 (0.001, 0.01, 0.1, 1, 10 mg/kg). All treatments were given via oral gavage twice a day and animals were followed for two weeks with blood samples collected from tail vein at the end of each week at 9 am without fasting. Fecal samples were collected for 24 hours during the second week of treatment.
Non-esterified fatty acids (NEFA), bile acids, and bile acids in fecal extraction were measured using the Olympus AU640 clinical chemistry analyzer (Beckman Coulter, Irving, Tex.).

Data set [2] deals with Male beagle dogs. Description: Time to onset of activity on postprandial serum total bile acids in beagle dogs. Format: in vivo. The note with it: dog. As for the experimental part:
(§1) Test compound: LUM001-Form I
(§2) LUM001 was dissolved in water at concentrations that required the administration of 0.2 ml/kg of solution. Solutions were placed into gelatin capsules, Torpac Inc., size 13 Batch 594, East Hanover N.J., and administered orally.
(§3) Male beagle dogs were obtained from Covance Research Products, Cumberland Va. or Marshall Farms USA, Inc., North Rose N.Y. A total of 20 dogs, 1 to 5 years old, 6.8 to 15.6 kg body weight, were used in these experiments. The dogs were conditioned to a 12 hour light/dark cycle and maintained on a feeding restriction of 1 hour per day access to food (Richman Standard Certified Canine Diet #5007, PMI Nutrition, Inc., St Louis Mo.) from 7 to 8 AM. They were trained to eat a special meal promptly within 20 minutes when presented (1 can. 397 g, Evanger's 100% Beef for Dogs, Evanger's Dog and Cat Food Co., Inc., Wheeling Ill., mixed with 50 g of sharp cheddar cheese.).
(§4) SBA was measured by an enzymatic assay. SBA values are expressed as μg of total bile acids/ml of serum.
To estimate the details of this plateau, 6 dogs were given a test meal and blood samples for SBA measurement were collected at −30, 0, 30, 60, 65, 70, 80, 90, 120, 180, 240, 360, 480, 720, 1410 and 1440 minutes from the time of feeding. Any remaining food was removed 20 min after it was first presented to the dogs. […]

Data set [3] has as its system Male beagle dogs. Description: Duration of action on dog serum bile acids, Method 1: two meals for extended SBA elevation. The note with it: for Serum Bile Acid, Mean: full meal at 0 hr, dosed at 1 hr, half meal at 4 hr. The format is in vivo. As to the method:
as §1, §2, §3, §4
To estimate the details of this plateau, 6 dogs were given a test meal and blood samples for SBA measurement were collected at −30, 0, 30, 60, 65, 70, 80, 90, 120, 180, 240, 360, 480, 720, 1410 and 1440 minutes from the time of feeding. Any remaining food was removed 20 min after it was first presented to the dogs. To establish a method for extending the elevated plateau of SBA, 6 dogs were given the meal at 0 hr and an additional ½ size meal again 4 hr after their first meal. Blood samples were taken at 0, 1, 2, 3, 4, 4.5, 6, 7 and 8 hr. The curves for SBA level vs time obtained in these experiments were used as references for determining blood sampling times in experiments with LUM001. Wherever possible, experimental design permitting, in experiments with test compound, each dog served as its own simultaneous control, and the mean 1 hr SBA value served as the reference to which all other mean values were compared.
In dogs a single experimental meal produces a postprandial rise in SBA that is elevated to a peak at 1 hour after feeding and constant for an additional 3 hours. Previous experiments (2) indicate that LUM001 remains active for more than 4.5 hours. To measure the duration of action of an ASBT inhibitor using postprandial SBA levels requires that in the control situation the SBA levels remain elevated and constant for the entire period of compound action, or that the compound be administered long before the postprandial rise occurs, and remain active in the empty digestive system for long periods before feeding. Accordingly, two alternative methods were used to provide a window of constant SBA elevation that could be used to measure the duration of action of ASBT inhibitors.
[…] At 4 hours after the meal was offered, a second meal of ½ the size of the first meal was offered. It too was consumed as promptly and thoroughly as the first meal, and provided an extended, constant SBA plateau. Blood samples for SBA measurement were taken at 0, 1, 1.5, 2, 4, 4.5, 5, 5.5, 6, 6.5, 7, 7.5 and 8 hours from the time of offering the first meal. Mean SBA levels were compared to the mean SBA level at 1 hour, each dog serving as its own control.
All animals were fed a full meal at 0 hour, dosed orally with the compound at 1 hour and then fed an additional one-half meal at 4 hours. *=p<0.05 compared to the mean value in the same curve at 1 hour by two-tailed paired two-sample t-test.

Data set [4] concerns healthy, adult subjects. Description: Phase 1 ascending multiple oral doses in healthy subjects: serum and fecal bile acid analysis. The format is in vivo, human. The note with it: 28 days. As to the method: This Phase 1 study was a randomized, double-blind, placebo-controlled study of ascending multiple oral doses of LUM001 in healthy, adult subjects. This study was conducted at a single center. There were 13 LUM001 dosing panels: 10, 20, 60, 100, and 20 mg every morning (qAM) (2) (i.e., the regimen was tested a second time in the study), 5 mg every evening (qPM), 0.5, 1, 2.5, 5, 2.5 (2), 5 (2), and 0.5 to 5 mg qAM dose titration. Most of the dosing panels included subjects treated with matching placebo. Shown in the graphs are data from the 0.5 (n=16), 1.0 (n=8), 2.5 (n=8), 5.0 (n=8) and 10 (n=8) mg dosing groups. […]
SBA were analyzed as part of the routine clinical analysis of the serum samples collected at each time point.
Fecal samples were collected for all panels except the dose-titration panel, 2.5 (2) and 5 mg (2), on Days 9 through 14 and 23 through 28 (data shown in FIG. 4). Twenty-four hour FBA excretions were quantified by Pharmacia for Days 9 through 14 and 23 through 28. […] The weight of each 24-hour fecal collection was recorded on the CRFs. […]
An aliquot for each 24-hour fecal sample collected on Days 23 through 28 was combined, homogenized, and analyzed for bile acid species concentrations by ANAPHARM. The fecal bile acid species evaluated include chenodeoxycholic acid, cholic acid, deoxycholic acid, and lithocholic acid.

A short description of data set [5]: Pharmacokinetics (systemic exposure) of LUM001 in pediatric subjects. Format: in vivo, human. The note with it: for concentration at 8 day: human, serum, read-out: Average serum drug exposure. As for the experimental part: (§5) LUM001 has been administered to forty patients under the age of 18 years old. […] The drug was administered once-a-day (QD) in the morning for fourteen days. […] These doses are similar to those using to treat children with cholestatic diseases.

Data set [6] has as its system children and adolescents under the age of eighteen. Put plainly: Fasting serum bile acid and morning post-prandial peak in pediatric subjects. Format: in vivo, human. The note with it: QD in the morning. As to the method: as §5
The efficacy of LUM001 was determined by measuring total serum bile acids after eight days of dosing in children and adolescents under the age of eighteen. Thirty minutes before the next drug administration, at approximately 8 am in the morning, serum bile acid levels were measured. The child had refrained from food for 12 hours prior to this sample thus providing a fasted level of serum bile acid. After breakfast, serum bile acids were measured for up to the next 4 hours (8 am to noon) and the peak serum bile acid concentration noted.

The test system of data set [7] is treated subjects aged 10-17. Put plainly: Pediatric multiple-dose study, tolerability. The note with it: 2 weeks daily up to 5 mg q.d.; 39 treated subjects aged 10-17. Format: in vivo, human. An excerpt: (39 treated subjects aged 10-17).
Data set [8] has as its system Male ZDF rats. Description: Plasma bile acid levels of ZDF rats after ascending doses of SC-435 and LUM002. The note with it: ZDF rats n=4; all doses (SC-435 1, 10, 30 mg/kg; LUM002 0.3, 1, 3, 10, 30 mg/kg) oral gavage twice a day, 2 weeks. The format is in vivo, rat. As for the experimental part: FIG. 2. Plasma bile acid levels of ZDF rats after administration of ascending doses of SC-435 and LUM002. Male ZDF rats (n=4) were administered vehicle, SC-435 (1, 10 or 30 mg/kg) or LUM002 (0.3, 1, 3, 10 or 30 mg/kg) by oral gavage twice a day for 2 weeks. Plasma bile acid levels were determined at the end of the second week. Data are expressed as mean values±SEM.
Male ZDF rats (n=4) were administered vehicle, SC-435 (1, 10 or 30 mg/kg) or LUM002 (0.3, 1, 3, 10 or 30 mg/kg) by oral gavage twice a day for 2 weeks. Plasma bile acid levels were determined at the end of the second week. […] Data are expressed as mean values±SEM.

Take `CCCC[C@]1(CC)CS(=O)(=O)c2cc(OC)c(OC)cc2[C@@H](c2ccccc2)N1` [Compound 264W94]: the “Fecal bile acid concentrations elevated compared to vehicle treated rats” value in data set [1] (0.001-10 mg/kg oral gavage twice a day, 24 h feces in second week) is given as “up to 6.5 fold”. Moreover, in data set [1] (oral gavage twice a day), the “ED50 for elevation of fecal bile acid concentrations” value came out at 0.17 mg/kg, the “Fecal NEFA” value is given as “slightly increased” and the “Plasma bile acid concentrations” value is on record as “decreased dose-dependently”.

`CCCCC1(CCCC)CS(=O)(=O)c2ccc(N(C)C)cc2[C@@H](c2ccc(OCc3ccc(C[N+]45CCN(CC4)CC5)cc3)cc2)[C@H]1O` [LUM001]: in data set [2] (0.05 mg/kg oral), the “Time after dosing to significantly lowered SBA levels” value fell in the range of 1 to 2 h. Further, the “Serum Bile Acid, Mean” value in data set [2] (1 mg/kg p.o., 0 min from feeding, fed at 0 min, dosed at 60 min) is 2.8 µg/mL; in data set [3] (0 hr), 1.4 µg/mL; in data set [3] (1 hr) it was 9.2 µg/mL; in data set [3] (1.5 hr), 9.6 µg/mL; in data set [3] (2 hr), 6.7 µg/mL; in data set [3] (4 hr) it was 5.1* μg/ml. In addition, the “Serum Bile Acid, Mean” value is 6.4 µg/mL in data set [3] (4.5 hr); 7.0 µg/mL in data set [3] (5 hr); 7.0 µg/mL in data set [3] (6 hr); 7.4 µg/mL in data set [3] (7 hr); 6.5 µg/mL in data set [3] (8 hr). In data set [3] (previous experiments), the “Time LUM001 remains active” value is “more than 4.5 hours”. Besides, the Fecal bile acids result in data set [4] is given as “significant increase”. Further, in data set [4], the Serum bile acids entry is “significant reduction”. The “Systemic absorption (levels of systemic exposure measured on day eight)” value in data set [5] (children, once-a-day in the morning for fourteen days) is reported as “minimally absorbed”. Also, the concentration at 8 day in data set [5] (Subject 0308, 1.0 mg, 28.9 μg/kg QD) was 0 ng/mL; in data set [5] (Subject 0410, 2.5 mg, 42.0 μg/kg QD), 0 ng/mL; in data set [5] (Subject 0510, 5.0 mg, 168.4 μg/kg QD) it was 0 ng/mL. Further, in data set [6], the “Decrease of fasting serum bile acid level versus placebo patients” value amounted to 24%. Further, in data set [6], the “Decrease of post-prandial peak serum bile acid level versus placebo patients” value came out at 23%. In addition, the Tolerability result in data set [7] was “well-tolerated”.

As for `CCCC[C@]1(CC)CS(=O)(=O)c2ccc(N(C)C)cc2[C@@H](c2cccc(NC(=O)N[C@@H]3O[C@H](COS(=O)(=O)[O-])[C@@H](O)[C@H](OCc4ccccc4)[C@H]3O)c2)[C@H]1O.[K+]` [LUM002], the “Plasma bile acid levels” value in data set [8] was “decreased”.

For the compound `CCCCC1(CCCC)CS(=O)(=O)c2ccc(N(C)C)cc2[C@@H](c2ccc(OCCCC[N+]34CCN(CC3)CC4)cc2)[C@H]1O.CS(=O)(=O)[O-]` [SC-435, 1-[4-[4-[(4R,5R)-3,3-dibutyl-7-(dimethylamino)-2,3,4,5-tetrahydro-4-hydroxy-1,1-dioxido-1-benzothiepin-5-yl]phenoxy]butyl]-4-aza-1-azoniabicyclo[2.2.2]octane methanesulfonate salt, reference compound], in data set [8], the “Plasma bile acid levels” value was “decreased”.
